{
  "source": "patent US6420569B1",
  "about": "“Process for producing pyrone compounds” (Sumitomo Chemical Company, Limited, priority 2000, dated 2002)",
  "tested_on": "houseflies (Musca domestica)",
  "test": "Knock-down test against housefly",
  "type": "in vivo",
  "details": "0.5% oil solution, 0.7 ml sprayed in 70 cm-cubic glass chamber; ten adult houseflies; 15 minutes after application; two repetitions",
  "protocol": "(Knock-down Test Against Housefly)\nA half part of 4-hydroxy-6-methyl-3-(4-methylpentanoyl)-2-pyrone was dissolved in 10 parts of dichloromethane and mixed with 89.5 parts of Isopar M (isoparaffin produced by Exxon Chemical) for preparing 0.5% oil solution. Part(s) means part(s) by weight.\nTen adult houseflies (Musca domestica) including 5 males and 5 females were released in a 70 cm-cubic glass chamber (volume: […]). By a spray-gun, 0.7 ml of the above oil solution was applied at a pressure of 0.9 kg/cm^2 from a small window on the wall of the chamber. After 15 minutes from application, knocked-down houseflies were observed. As a result of two repetitions, the knocked-down ratio was 95%.",
  "data": [
    {"molecule": "Cc1cc(O)c(C(=O)CCC(C)C)c(=O)o1", "note": "[4-Hydroxy-6-methyl-3-(4-methylpentanoyl)-2-pyrone]", "values": [
      {"measurement": "knocked-down ratio", "value": 95, "unit": "%"}
    ]}
  ]
}
